Test results reported in ChEMBL document CHEMBL4507260 (2021).

What was measured:
Details in all cases: Compound concentration 1000.0 nM
[1] = molecular target: AP2-associated protein kinase 1 (Homo sapiens) (UniProt Q2M2I8)
[2] = molecular target: Serine/threonine-protein kinase RIO2 (Homo sapiens) (UniProt Q9BVS4)
[3] = tested on: Receptor-type tyrosine-protein kinase FLT3 (Homo sapiens), P36888 [D835V]
[4] = molecular target: MAP kinase-activated protein kinase 5 (Homo sapiens) (UniProt Q8IW41)
[5] = molecular target: Mitogen-activated protein kinase 14 (Homo sapiens) (UniProt Q16539)
[6] = molecular target: Myotonin-protein kinase (Homo sapiens) (UniProt Q09013)
[7] = tested on: Epidermal growth factor receptor (Homo sapiens), P00533 [UNDEFINED MUTATION]
[8] = molecular target: Protein kinase C iota type (Homo sapiens) (UniProt P41743)
[9] = molecular target: Tyrosine-protein kinase CSK (Homo sapiens) (UniProt P41240)
[10] = molecular target: Serine/threonine-protein kinase TAO3 (Homo sapiens) (UniProt Q9H2K8)
[11] = molecular target: Serine/threonine-protein kinase Nek3 (Homo sapiens) (UniProt P51956)
[12] = molecular target: Vascular endothelial growth factor receptor 3 (Homo sapiens) (UniProt P35916)
[13] = molecular target: Mitogen-activated protein kinase 7 (Homo sapiens) (UniProt Q13164)
[14] = molecular target: Mitogen-activated protein kinase kinase kinase kinase 3 (Homo sapiens) (UniProt Q8IVH8)
[15] = molecular target: Cyclin-dependent kinase 9 (Homo sapiens) (UniProt P50750)
Sequence of Cyclin-dependent kinase 9 (Homo sapiens) (P50750 whole entry): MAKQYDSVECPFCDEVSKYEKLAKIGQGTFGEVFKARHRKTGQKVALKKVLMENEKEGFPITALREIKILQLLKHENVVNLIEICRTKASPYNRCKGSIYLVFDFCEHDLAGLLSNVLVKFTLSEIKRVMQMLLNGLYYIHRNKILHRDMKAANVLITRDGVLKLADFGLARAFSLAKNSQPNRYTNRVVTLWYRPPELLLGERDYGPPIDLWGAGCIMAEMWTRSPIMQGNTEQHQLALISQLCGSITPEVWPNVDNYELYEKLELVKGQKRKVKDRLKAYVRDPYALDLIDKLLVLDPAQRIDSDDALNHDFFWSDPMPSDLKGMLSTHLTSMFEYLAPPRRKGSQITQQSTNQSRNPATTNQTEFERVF

[16] = molecular target: Mitogen-activated protein kinase 3 (Homo sapiens) (UniProt P27361)
[17] = molecular target: BDNF/NT-3 growth factors receptor (Homo sapiens) (UniProt Q16620)
[18] = molecular target: Aurora kinase B (Homo sapiens) (UniProt Q96GD4)
[19] = molecular target: cAMP-dependent protein kinase catalytic subunit PRKX (Homo sapiens) (UniProt P51817)
[20] = molecular target: Ephrin type-B receptor 6 (Homo sapiens) (UniProt O15197)
[21] = molecular target: Phosphatidylinositol 5-phosphate 4-kinase type-2 beta (Homo sapiens) (UniProt P78356)
[22] = molecular target: Tyrosine-protein kinase FRK (Homo sapiens) (UniProt P42685)
[23] = molecular target: Serine/threonine-protein kinase OSR1 (Homo sapiens) (UniProt O95747)
[24] = molecular target: Homeodomain-interacting protein kinase 4 (Homo sapiens) (UniProt Q8NE63)
Sequence of Homeodomain-interacting protein kinase 4 (Homo sapiens) (Q8NE63 whole entry): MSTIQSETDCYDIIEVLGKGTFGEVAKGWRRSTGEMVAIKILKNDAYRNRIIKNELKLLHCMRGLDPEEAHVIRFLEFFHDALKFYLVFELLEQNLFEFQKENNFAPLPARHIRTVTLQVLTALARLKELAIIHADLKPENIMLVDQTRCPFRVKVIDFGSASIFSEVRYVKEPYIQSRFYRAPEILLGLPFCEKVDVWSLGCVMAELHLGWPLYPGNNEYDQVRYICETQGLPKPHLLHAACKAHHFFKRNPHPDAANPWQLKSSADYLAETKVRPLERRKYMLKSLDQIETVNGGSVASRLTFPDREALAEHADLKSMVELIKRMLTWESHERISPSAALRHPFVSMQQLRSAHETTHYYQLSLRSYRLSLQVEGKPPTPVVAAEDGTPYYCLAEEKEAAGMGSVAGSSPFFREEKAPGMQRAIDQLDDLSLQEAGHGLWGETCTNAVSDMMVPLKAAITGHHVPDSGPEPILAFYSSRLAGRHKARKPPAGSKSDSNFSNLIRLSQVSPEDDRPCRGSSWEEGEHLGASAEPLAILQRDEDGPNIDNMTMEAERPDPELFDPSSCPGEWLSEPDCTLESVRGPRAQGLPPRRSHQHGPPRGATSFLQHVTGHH

[25] = molecular target: Insulin-like growth factor 1 receptor (Homo sapiens) (UniProt P08069)
[26] = molecular target: NT-3 growth factor receptor (Homo sapiens) (UniProt Q16288)
Sequence of NT-3 growth factor receptor (Homo sapiens) (Q16288 32-839 limits assumed): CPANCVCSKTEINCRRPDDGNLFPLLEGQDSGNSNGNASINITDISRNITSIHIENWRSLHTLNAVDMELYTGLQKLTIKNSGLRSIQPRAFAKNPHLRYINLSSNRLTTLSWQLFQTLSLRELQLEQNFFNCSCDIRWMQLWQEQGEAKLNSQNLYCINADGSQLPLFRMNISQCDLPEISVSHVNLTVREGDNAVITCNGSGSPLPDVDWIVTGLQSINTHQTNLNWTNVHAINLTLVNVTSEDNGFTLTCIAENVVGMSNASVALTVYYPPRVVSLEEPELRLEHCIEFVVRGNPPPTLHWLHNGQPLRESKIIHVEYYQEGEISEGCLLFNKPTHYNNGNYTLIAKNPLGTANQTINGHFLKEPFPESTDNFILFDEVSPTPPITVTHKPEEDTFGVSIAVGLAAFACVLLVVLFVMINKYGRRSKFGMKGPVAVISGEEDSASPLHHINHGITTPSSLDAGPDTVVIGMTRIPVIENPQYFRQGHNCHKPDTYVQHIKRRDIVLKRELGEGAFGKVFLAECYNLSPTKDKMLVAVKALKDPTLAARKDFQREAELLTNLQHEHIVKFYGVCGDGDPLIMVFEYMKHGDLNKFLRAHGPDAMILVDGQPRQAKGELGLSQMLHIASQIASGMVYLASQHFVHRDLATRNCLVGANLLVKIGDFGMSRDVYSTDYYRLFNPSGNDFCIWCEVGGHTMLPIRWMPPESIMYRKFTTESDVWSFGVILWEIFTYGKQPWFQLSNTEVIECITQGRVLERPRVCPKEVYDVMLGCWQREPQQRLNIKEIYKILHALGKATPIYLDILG

[27] = molecular target: Cyclin-dependent kinase 5 (Homo sapiens) (UniProt Q00535)
[28] = molecular target: Cyclin-dependent kinase-like 2 (Homo sapiens) (UniProt Q92772)
Sequence of Cyclin-dependent kinase-like 2 (Homo sapiens) (Q92772 whole entry): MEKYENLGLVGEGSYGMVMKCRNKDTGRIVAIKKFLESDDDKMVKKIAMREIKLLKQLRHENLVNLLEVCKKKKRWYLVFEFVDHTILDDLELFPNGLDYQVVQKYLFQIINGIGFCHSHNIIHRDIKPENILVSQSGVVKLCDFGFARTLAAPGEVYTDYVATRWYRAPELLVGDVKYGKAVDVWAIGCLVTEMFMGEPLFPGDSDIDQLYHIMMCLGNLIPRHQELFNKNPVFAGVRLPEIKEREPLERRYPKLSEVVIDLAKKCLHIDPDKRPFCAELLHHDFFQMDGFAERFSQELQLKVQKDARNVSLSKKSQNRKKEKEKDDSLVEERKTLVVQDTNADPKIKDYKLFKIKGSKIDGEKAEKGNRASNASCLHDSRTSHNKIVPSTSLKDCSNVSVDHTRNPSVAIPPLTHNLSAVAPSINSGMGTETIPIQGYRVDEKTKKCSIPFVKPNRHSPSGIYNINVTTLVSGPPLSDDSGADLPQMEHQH

[29] = molecular target: Serine/threonine-protein kinase MARK2 (Homo sapiens) (UniProt Q7KZI7)
Sequence of Serine/threonine-protein kinase MARK2 (Homo sapiens) (Q7KZI7 whole entry, the tested form may be a part): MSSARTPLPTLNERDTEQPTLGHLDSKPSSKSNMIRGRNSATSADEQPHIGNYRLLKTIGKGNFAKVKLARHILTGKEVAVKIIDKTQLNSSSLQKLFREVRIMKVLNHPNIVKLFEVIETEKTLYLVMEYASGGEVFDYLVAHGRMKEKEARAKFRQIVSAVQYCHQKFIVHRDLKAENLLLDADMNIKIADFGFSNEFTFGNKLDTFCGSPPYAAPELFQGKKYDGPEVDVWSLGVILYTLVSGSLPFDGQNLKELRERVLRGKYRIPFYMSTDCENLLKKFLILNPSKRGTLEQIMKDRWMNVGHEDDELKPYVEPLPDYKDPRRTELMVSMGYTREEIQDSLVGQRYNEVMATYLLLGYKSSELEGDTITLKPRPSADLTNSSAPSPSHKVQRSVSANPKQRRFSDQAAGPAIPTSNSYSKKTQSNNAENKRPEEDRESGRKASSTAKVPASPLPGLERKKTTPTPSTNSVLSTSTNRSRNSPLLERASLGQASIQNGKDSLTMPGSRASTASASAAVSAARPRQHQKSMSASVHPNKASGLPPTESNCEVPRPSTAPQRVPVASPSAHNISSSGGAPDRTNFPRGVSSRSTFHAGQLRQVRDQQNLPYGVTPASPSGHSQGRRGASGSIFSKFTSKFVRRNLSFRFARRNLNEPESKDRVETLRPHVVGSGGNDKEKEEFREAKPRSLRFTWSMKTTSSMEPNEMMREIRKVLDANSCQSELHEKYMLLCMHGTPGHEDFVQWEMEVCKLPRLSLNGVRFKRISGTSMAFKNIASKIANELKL

[30] = molecular target: Phosphatidylinositol 4-phosphate 3-kinase C2 domain-containing subunit beta (Homo sapiens) (UniProt O00750)
[31] = molecular target: Casein kinase I isoform gamma-2 (Homo sapiens) (UniProt P78368)
[32] = molecular target: Interleukin-1 receptor-associated kinase 3 (Homo sapiens) (UniProt Q9Y616)
[33] = molecular target: MAP/microtubule affinity-regulating kinase 4 (Homo sapiens) (UniProt Q96L34)
Sequence of MAP/microtubule affinity-regulating kinase 4 (Homo sapiens) (Q96L34 whole entry): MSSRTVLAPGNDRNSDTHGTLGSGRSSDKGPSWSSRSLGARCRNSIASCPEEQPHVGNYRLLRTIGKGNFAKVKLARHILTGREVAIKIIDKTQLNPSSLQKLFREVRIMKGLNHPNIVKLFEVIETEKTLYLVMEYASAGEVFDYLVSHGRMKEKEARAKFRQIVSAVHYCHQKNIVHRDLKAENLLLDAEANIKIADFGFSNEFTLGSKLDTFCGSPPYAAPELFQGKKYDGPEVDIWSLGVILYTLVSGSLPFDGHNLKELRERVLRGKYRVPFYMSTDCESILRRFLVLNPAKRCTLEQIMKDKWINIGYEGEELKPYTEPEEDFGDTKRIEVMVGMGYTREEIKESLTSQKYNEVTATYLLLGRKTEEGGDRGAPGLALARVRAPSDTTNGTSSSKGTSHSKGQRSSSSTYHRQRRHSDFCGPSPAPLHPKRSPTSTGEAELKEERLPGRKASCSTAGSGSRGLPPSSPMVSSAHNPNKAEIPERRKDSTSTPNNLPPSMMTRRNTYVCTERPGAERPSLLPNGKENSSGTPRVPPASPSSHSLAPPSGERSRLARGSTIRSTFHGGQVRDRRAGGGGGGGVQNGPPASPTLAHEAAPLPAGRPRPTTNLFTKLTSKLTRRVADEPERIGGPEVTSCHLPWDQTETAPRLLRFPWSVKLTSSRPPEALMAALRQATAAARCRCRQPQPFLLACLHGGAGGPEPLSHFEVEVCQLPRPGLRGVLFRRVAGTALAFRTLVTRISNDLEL

[34] = molecular target: Transient receptor potential cation channel subfamily M member 6 (Homo sapiens) (UniProt Q9BX84)
[35] = molecular target: Misshapen-like kinase 1 (Homo sapiens) (UniProt Q8N4C8)
[36] = molecular target: Homeodomain-interacting protein kinase 3 (Homo sapiens) (UniProt Q9H422)
[37] = tested on: Receptor-type tyrosine-protein kinase FLT3 (Homo sapiens), P36888 [D835H]
[38] = molecular target: Rho-associated protein kinase 2 (Homo sapiens) (UniProt O75116)
[39] = molecular target: Tyrosine-protein kinase receptor Tie-1 (Homo sapiens) (UniProt P35590)
Sequence of Tyrosine-protein kinase receptor Tie-1 (Homo sapiens) (P35590 whole entry): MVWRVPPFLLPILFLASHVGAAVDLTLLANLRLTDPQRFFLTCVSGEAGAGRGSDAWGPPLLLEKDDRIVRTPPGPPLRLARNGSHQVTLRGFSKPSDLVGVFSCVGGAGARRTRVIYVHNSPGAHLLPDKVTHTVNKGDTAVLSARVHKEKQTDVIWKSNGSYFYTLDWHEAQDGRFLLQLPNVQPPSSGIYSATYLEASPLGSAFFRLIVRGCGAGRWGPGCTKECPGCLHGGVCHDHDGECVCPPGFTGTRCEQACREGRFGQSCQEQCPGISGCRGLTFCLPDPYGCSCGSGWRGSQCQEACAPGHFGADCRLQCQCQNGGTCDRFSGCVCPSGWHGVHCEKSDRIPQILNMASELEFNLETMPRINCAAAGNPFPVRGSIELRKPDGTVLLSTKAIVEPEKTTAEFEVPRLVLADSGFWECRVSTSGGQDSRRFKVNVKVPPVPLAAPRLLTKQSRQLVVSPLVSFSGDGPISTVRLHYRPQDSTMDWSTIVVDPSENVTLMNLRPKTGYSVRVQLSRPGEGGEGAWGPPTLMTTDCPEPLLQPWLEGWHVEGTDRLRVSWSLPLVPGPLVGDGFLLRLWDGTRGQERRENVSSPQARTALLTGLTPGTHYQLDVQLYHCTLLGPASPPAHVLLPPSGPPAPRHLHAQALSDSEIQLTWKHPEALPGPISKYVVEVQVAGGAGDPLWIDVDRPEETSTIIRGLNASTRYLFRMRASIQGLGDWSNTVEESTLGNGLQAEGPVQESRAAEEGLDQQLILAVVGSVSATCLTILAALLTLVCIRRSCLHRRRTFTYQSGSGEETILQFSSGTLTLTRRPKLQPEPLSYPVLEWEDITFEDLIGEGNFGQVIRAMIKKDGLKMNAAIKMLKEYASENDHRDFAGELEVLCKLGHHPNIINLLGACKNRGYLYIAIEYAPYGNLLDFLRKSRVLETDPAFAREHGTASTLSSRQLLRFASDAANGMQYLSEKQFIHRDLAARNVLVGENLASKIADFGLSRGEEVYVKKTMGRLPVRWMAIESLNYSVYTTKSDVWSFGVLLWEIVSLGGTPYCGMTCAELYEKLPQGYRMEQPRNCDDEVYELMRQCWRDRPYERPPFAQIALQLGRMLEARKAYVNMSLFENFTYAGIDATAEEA

[40] = molecular target: Serine/threonine-protein kinase mTOR (Homo sapiens) (UniProt P42345)
[41] = molecular target: Ephrin type-A receptor 8 (Homo sapiens) (UniProt P29322)
[42] = molecular target: Serine/threonine-protein kinase 10 (Homo sapiens) (UniProt O94804)
[43] = tested on: Phosphatidylinositol 4,5-bisphosphate 3-kinase catalytic subunit alpha isoform (Homo sapiens), P42336 [H1047Y]
[44] = molecular target: Cyclin-dependent kinase 4 (Homo sapiens) (UniProt P11802)
[45] = tested on: Proto-oncogene tyrosine-protein kinase receptor Ret (Homo sapiens), P07949 [V804L]

Work on `CSc1cccnc1N1CCN(Cc2nc3ccccc3[nH]2)CC1` [A-769] yielded a residual activity [1] of 100%, a residual activity [2] of 100% and a residual activity [3] of 84%. It also gave a residual activity [4] of 84%, a residual activity [5] of 100% and a residual activity [6] of 81%. It also gave a residual activity [7] of 100%, a residual activity [8] of 100% and a residual activity [9] of 100%. It also gave a residual activity [10] of 93%, a residual activity [11] of 88% and a residual activity [12] of 100%. It also gave a residual activity [13] of 100%, a residual activity [14] of 100% and a residual activity [15] of 97%. For the same compound, the residual activity [16] was 99%, the residual activity [17] was 100% and the residual activity [18] was 67%. The residual activity [19] was 100%, the residual activity [20] was 89% and the residual activity [21] was 100%. The residual activity [22] was 92%, the residual activity [23] was 78% and the residual activity [24] was 100%. It also gave a residual activity [25] of 100%, a residual activity [26] of 83% and a residual activity [27] of 99%. The residual activity [28] was 84%, the residual activity [29] was 100% and the residual activity [30] was 94%. It also gave a residual activity [31] of 99%, a residual activity [32] of 94% and a residual activity [33] of 100%. For the same compound, the residual activity [34] was 100%, the residual activity [35] was 89% and the residual activity [36] was 96%. For the same compound, the residual activity [37] was 65%, the residual activity [38] was 74% and the residual activity [39] was 100%. The residual activity [40] was 100%, the residual activity [41] was 95% and the residual activity [42] was 87%. The residual activity [43] was 100%, the residual activity [44] was 82% and the residual activity [45] was 98%.
For `c1ccc(N2CCN(Cc3nc4ccccc4[nH]3)CC2)nc1` [ABT-724], the residual activity [1] was 100%, the residual activity [2] was 100% and the residual activity [3] was 88%. It also gave a residual activity [4] of 100%, a residual activity [5] of 89% and a residual activity [6] of 100%. It also gave a residual activity [7] of 100%, a residual activity [8] of 97% and a residual activity [9] of 100%. The residual activity [10] was 86%, the residual activity [11] was 100% and the residual activity [12] was 100%. It also gave a residual activity [13] of 100%, a residual activity [14] of 100% and a residual activity [15] of 100%. For the same compound, the residual activity [16] was 100%, the residual activity [17] was 100% and the residual activity [18] was 18%. The residual activity [19] was 100%, the residual activity [20] was 75% and the residual activity [21] was 100%. For the same compound, the residual activity [22] was 100%, the residual activity [23] was 100% and the residual activity [24] was 91%. It also gave a residual activity [25] of 100%, a residual activity [26] of 87% and a residual activity [27] of 100%. For the same compound, the residual activity [28] was 100%, the residual activity [29] was 100% and the residual activity [30] was 85%. It also gave a residual activity [31] of 100%, a residual activity [32] of 100% and a residual activity [33] of 100%. It also gave a residual activity [34] of 100%, a residual activity [35] of 100% and a residual activity [36] of 100%. It also gave a residual activity [37] of 100%, a residual activity [38] of 100% and a residual activity [39] of 96%. For the same compound, the residual activity [40] was 100%, the residual activity [41] was 100% and the residual activity [42] was 100%. It also gave a residual activity [43] of 79%, a residual activity [44] of 100% and a residual activity [45] of 100%.
